Results taken from PMC4147587, “Synthesis and Analgesic Effects of μ-TRTX-Hhn1b on Models of Inflammatory and Neuropathic Pain” (Toxins, 2014).
Where two headings read alike, the source gives them in different places. No end group written: not given here.

Key:
[1] = test system: paroxysmal extreme pain disorder (PEPD); conditions: patients; cited from earlier work
Description: (§1) Voltage-gated sodium channels (VGSCs) are essential for the initiation and propagation of action potentials in excitable tissues, such as nerves and muscles. Considerable in vivo and in vitro studies indicate that VGSCs play a key role in neuropathic and inflammatory pain, which begins with the aberrant firing of action potential bursts in damaged neuronal tissue. Of the nine subtypes of VGSCs identified to date and designated as Nav1.1–1.9, Nav1.3, 1.7, 1.8 and 1.9 play specialized roles in nociceptive pathways and are considered ideal targets for the development of analgesi ...

[2] = test system: inherited erythromelalgia (IEM); conditions: patients; cited from earlier work
Description: as §1

[3] = test system: rat models of neuropathic pain; conditions: 37.5 mg/kg i.p., cited from earlier work
Description: A total of 30 rats with mechanical allodynia were divided into five groups randomly.

[4] = test system: motor coordination of rats (latency to fall off the rotarod); format: in vivo, rat (Sprague-Dawley); conditions: rat, in vivo
Description: Motor activity was assessed using a rotarod apparatus for rats (Coulbourn Instruments, Lehigh Valley, PA, USA). The rotarod might be set at any speed from 0 to 50 rpm. For motor coordination assessment, rats were trained for 2 days by walking them each day on an accelerating rotarod from 4 to 40 rpm for 10 min. […] Motor performance was considered as the latency to fall off the rotarod apparatus determined from the mean time in three trials for each rat at each time.

[5] = test system: formalin-induced pain behaviors in rats; assay: formalin-induced inflammatory rat model; format: in vivo, rat (Sprague-Dawley); conditions: rat, in vivo, ip
Description: Acute and chronic nociceptive responses were measured using the rat paw formalin test as descried by Dubission and modified by Malmberg. Adult Sprague-Dawley rats (male, weighing 180–220 g) were used for this behavioral test. During the test, each rat was placed into open polyvinyl cages (30 cm × 40 cm × 30 cm) and at least 30 min before administration of the toxin. All agents were administered 30 min prior to s.c. intraplantar formalin injection. A volume of 50 μL formalin (5%) solution was used as previously described and injected into the plantar surface of one hind paw. Lifting, favoring, licking, shaking and flinching of the injected paw were recorded as nociceptive responses. The total time of the nociceptive response was measured every 5 min and […] (mean ± SEM). Recording of nociceptive behavior commenced immediately after formalin injection and was continued for 40 min.

[6] = test system: Nav1.2, Nav1.3, Nav1.4, Nav1.5, Nav1.7; conditions: native toxin; ref 27 (unpublished work, 2014); cited from earlier work
[7] = target: T1, human Nav1.7 (Homo sapiens, UniProt Q15858); assay: whole-cell patch clamp, human Nav1.7 transiently expressed in HEK 293 cells; format: cell-based; conditions: comparison group printed as "native toxin group"
T1 construct: expressed in transfected cells; host or cells: HEK293 cells, transient transfection with Lipofectamine 2000
T1 sequence (Q15858 other isoform, or with tags, fused parts or gaps): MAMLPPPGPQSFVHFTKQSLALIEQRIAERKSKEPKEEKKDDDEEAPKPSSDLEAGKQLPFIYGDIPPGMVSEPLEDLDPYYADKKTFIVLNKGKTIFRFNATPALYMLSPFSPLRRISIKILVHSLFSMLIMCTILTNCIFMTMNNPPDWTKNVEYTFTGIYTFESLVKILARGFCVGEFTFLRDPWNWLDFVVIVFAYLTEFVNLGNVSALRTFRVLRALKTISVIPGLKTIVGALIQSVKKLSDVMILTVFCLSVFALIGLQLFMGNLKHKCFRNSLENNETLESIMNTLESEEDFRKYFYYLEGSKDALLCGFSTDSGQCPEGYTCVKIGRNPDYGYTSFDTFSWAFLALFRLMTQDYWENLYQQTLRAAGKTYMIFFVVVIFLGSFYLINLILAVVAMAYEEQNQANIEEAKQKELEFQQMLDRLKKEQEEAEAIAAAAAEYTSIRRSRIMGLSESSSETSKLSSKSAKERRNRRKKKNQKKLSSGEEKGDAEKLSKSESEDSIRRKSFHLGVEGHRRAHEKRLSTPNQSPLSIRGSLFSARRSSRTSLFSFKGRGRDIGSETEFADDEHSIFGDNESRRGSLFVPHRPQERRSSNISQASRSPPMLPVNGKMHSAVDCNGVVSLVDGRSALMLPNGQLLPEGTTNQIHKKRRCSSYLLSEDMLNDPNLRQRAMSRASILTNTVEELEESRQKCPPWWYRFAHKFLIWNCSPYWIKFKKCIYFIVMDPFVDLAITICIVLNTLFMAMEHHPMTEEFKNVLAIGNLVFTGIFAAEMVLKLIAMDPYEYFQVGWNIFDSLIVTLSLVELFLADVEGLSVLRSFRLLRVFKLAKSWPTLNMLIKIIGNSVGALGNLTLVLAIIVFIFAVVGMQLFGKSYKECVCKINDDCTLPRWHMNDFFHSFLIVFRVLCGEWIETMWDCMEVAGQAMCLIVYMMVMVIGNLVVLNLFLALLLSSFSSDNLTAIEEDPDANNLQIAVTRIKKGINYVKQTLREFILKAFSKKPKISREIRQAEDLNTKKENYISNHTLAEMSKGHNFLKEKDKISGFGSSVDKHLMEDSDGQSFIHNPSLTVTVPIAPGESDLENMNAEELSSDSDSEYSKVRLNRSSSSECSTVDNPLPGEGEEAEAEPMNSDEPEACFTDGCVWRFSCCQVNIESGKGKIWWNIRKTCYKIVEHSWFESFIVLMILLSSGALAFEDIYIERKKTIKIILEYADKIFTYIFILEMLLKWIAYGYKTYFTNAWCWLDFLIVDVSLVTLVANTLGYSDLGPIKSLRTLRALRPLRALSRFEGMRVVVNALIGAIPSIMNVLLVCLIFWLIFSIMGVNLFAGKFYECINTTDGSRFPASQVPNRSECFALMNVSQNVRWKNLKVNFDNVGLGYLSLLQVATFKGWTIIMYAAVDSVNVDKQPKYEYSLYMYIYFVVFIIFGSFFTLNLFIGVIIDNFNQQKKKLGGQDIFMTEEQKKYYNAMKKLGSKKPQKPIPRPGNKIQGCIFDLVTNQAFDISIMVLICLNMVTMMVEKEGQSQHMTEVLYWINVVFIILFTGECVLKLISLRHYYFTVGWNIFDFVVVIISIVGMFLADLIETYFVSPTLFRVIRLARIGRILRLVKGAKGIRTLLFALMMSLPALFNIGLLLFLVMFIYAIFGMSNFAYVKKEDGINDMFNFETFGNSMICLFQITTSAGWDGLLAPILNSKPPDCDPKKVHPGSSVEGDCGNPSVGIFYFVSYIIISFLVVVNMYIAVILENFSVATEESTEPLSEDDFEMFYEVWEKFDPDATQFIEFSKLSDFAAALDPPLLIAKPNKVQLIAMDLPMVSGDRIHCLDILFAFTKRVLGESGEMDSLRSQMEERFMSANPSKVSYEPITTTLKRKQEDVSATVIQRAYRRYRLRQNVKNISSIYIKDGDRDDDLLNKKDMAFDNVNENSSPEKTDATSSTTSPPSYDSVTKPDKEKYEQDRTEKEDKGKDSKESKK
T1 sequence (Q07699 19-218, further chain): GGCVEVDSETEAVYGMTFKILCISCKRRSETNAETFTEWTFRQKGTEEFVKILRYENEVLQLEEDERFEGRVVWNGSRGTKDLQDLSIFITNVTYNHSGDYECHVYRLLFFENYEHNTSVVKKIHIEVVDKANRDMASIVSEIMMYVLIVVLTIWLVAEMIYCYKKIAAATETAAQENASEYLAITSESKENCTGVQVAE
Description: Figure 2 Inhibitory effect of synthetic μ-TRTX-Hhn1b on Nav1.7 expressed on HEK 293 cells. […] (B) The inhibition of μ-TRTX-Hhn1b on Nav1.7 was dose-dependent. […] Data are plotted as a fraction of the maximum conductance. The voltage-dependence of steady-state inactivation was estimated using a standard double-pulse protocol, in which a 20-ms depolarizing test potential of 0 mV followed a 500-ms prepulse at potentials that ranged from −130 to −10 mV with a 10-mV increment. Cells were held at −100 mV.
A human Nav1.7 channel plasmid (accession No. NM_002977) and a plasmid for green ﬂuorescent protein were transiently transfected into human embryonic kidney 293 (HEK293) cells using Lipofectamine 2000 (Invitrogen, Carlsbad, CA, USA) according to the manufacturer’s instructions. HEK293 cells were grown under standard tissue culture conditions (5% CO2; 37 °C) in DMEM supplemented with 10% FBS. The β1 subunit was cotransfected with the Nav1.7 channel to increase the current density. Cells with green ﬂuorescence were selected for whole-cell patch-clamp recording at 36–72 h after transfection. Patch-clamp experiments were performed at room temperature. Suction pipettes (2.0–3.0 MΩ) were made from borosilicate glass capillary tubes using a two-step vertical micropipette puller. The pipette solution contained (in mM): CsCl 145, MgCl2∙6H2O 4, HEPES 10, EGTA 10, glucose 10, ATP 2 (pH 7.2). The external solution contained (in mM): NaCl 145, KCl 2.5, CaCl2 1.5, MgCl2.6H2O 1.2, HEPES 10, glucose 10 (pH 7.4). Experimental data were collected and analyzed using the program Pulse/Pulsefit 8.0 (HEKA Electronics, Pfalz, Germany). Macroscopic sodium currents were filtered at 5 kHz and digitized at 20 kHz with an EPC-9 patch-clamp amplifier (HEKA Electronics, Pfalz, Germany). Series resistance was kept near 5 MΩ and compensated to 65%–70%; linear capacitative and leakage currents were digitally subtracted using the P/4 protocol.

[8] = test system: Nav1.7; conditions: native toxin; ref 27 (unpublished work, 2014); cited from earlier work
Description: μ-TRTX-Hhn1b (HNTX-IV) is a 35-residue peptide from tarantula Ornithoctonus hainana (Haplopelma hainanum) venom. The amino acid sequence is […]. The peptide amidated at its C-terminal has a high proportion of basic residues and is crosslinked by three disulfide bonds.

NC(=O)N1c2ccccc2C=Cc2ccccc21 [carbamazepine]
control of PEPD [1]: well controlled

CCN(CC)CC(=O)Nc1c(C)cccc1C [lidocaine]
treatment of IEM [2]: very ineffective

Cc1cccc(C)c1OCC(C)N (centres unmarked) [mexiletine]
treatment of IEM [2]: very ineffective
withdrawal threshold to von Frey hair ([3]; 15 min after injection): significantly increased the withdrawal threshold
withdrawal threshold to von Frey hair ([3]; 45 min after injection): returned to a level non-significantly different from the baseline and vehicle
latency to fall off the rotarod [4]: significant latency reduction

CN1CC[C@]23c4c5ccc(O)c4O[C@H]2[C@@H](O)C=C[C@H]3[C@H]1C5 [morphine, reference compound]
pain score [5]: 225.0 ± 55.8 s

ECLGFGKGCNPSNDQCCKSSNLVCSRKHRWCKYEI (disulfide (positions not given here)) [native μ-TRTX-Hhn1b, reference compound]
subtype preference [6]: preferentially inhibited Nav1.2, Nav1.3 and Nav1.7 compared with Nav1.4 and Nav1.5; Nav1.7 was the most sensitive channel
half-activation voltage of Nav1.7 [7]: −20.5 ± 0.2 mV
half-inactivation voltage of Nav1.7 [7]: −42.6 ± 0.2 mV
IC50 [8]: ~21 nM
